Measurements: the NIST ThermoML archive (doi:10.1021/je300873x)

Assay: mn = molality of the nth substance listed, in mol/kg
Conditions: for surface tension liquid-gas: Pendant drop shape; for electrical conductivity: Liquid, Digital conductivity meter

CCCCCCCCCCCCCCCC[N+](C)(CCO)CCO.[Br-] [hexadecyl- di(2-hydroxyethyl)-methylazanium bromide] + O
Conditions	electrical conductivity [S/m]	surface tension liquid-gas [mN/m]
298.15 K, m1 = 0.00011	–	64.14
298.15 K, m1 = 0.00021	–	58.32
298.15 K, m1 = 0.00032	–	52.91
298.15 K, m1 = 0.00042	–	47.72
298.15 K, m1 = 0.00053	–	44.77
298.15 K, m1 = 0.00056	0.0055	–
298.15 K, m1 = 0.00058	0.0057	–
298.15 K, m1 = 0.0006	0.0059	–
298.15 K, m1 = 0.00063	0.0062	41.55
298.15 K, m1 = 0.00065	0.0064	–
298.15 K, m1 = 0.00068	0.0067	–
298.15 K, m1 = 0.00072	0.0069	–
298.15 K, m1 = 0.00074	–	38.75
298.15 K, m1 = 0.00075	0.0072	–
298.15 K, m1 = 0.00079	0.0073	38.7
298.15 K, m1 = 0.00084	0.0075	38.62
298.15 K, m1 = 0.00089	0.0077	38.55
298.15 K, m1 = 0.00094	0.0078	–
298.15 K, m1 = 0.00095	–	38.02
298.15 K, m1 = 0.001	0.0081	–
298.15 K, m1 = 0.00105	–	38.11
298.15 K, m1 = 0.00108	0.0083	–
298.15 K, m1 = 0.00116	0.0086	37.87
298.15 K, m1 = 0.00126	0.0089	37.86
298.15 K, m1 = 0.00137	0.0092	–
298.15 K, m1 = 0.00151	0.0094	–
303.15 K, m1 = 0.00032	0.0034	–
303.15 K, m1 = 0.00035	0.0038	–
303.15 K, m1 = 0.00039	0.0042	–
303.15 K, m1 = 0.00043	0.0046	–
303.15 K, m1 = 0.0005	0.0052	–
303.15 K, m1 = 0.00058	0.0061	–
303.15 K, m1 = 0.00063	0.0066	–
303.15 K, m1 = 0.00068	0.007	–
303.15 K, m1 = 0.00075	0.0075	–
303.15 K, m1 = 0.00084	0.0081	–
303.15 K, m1 = 0.00094	0.0086	–
303.15 K, m1 = 0.001	0.0088	–
303.15 K, m1 = 0.00107	0.0091	–
303.15 K, m1 = 0.00116	0.0094	–
303.15 K, m1 = 0.00125	0.0097	–
303.15 K, m1 = 0.00137	0.01	–
303.15 K, m1 = 0.0015	0.0105	–
308.15 K, m1 = 0.00031	0.0037	–
308.15 K, m1 = 0.00035	0.004	–
308.15 K, m1 = 0.00038	0.0044	–
308.15 K, m1 = 0.00043	0.0049	–
308.15 K, m1 = 0.00049	0.0057	–
308.15 K, m1 = 0.00058	0.0067	–
308.15 K, m1 = 0.00063	0.0072	–
308.15 K, m1 = 0.00068	0.0078	–
308.15 K, m1 = 0.00075	0.0084	–
308.15 K, m1 = 0.00083	0.009	–
308.15 K, m1 = 0.00094	0.0097	–
308.15 K, m1 = 0.001	0.01	–
308.15 K, m1 = 0.00107	0.0102	–
308.15 K, m1 = 0.00116	0.0106	–
308.15 K, m1 = 0.00125	0.0108	–
308.15 K, m1 = 0.00137	0.0112	–
308.15 K, m1 = 0.0015	0.0117	–
313.15 K, m1 = 0.00058	0.0073	–
313.15 K, m1 = 0.0006	0.0075	–
313.15 K, m1 = 0.00062	0.0078	–
313.15 K, m1 = 0.00065	0.0081	–
313.15 K, m1 = 0.00068	0.0084	–
313.15 K, m1 = 0.00071	0.0088	–
313.15 K, m1 = 0.00075	0.009	–
313.15 K, m1 = 0.00079	0.0097	–
313.15 K, m1 = 0.00083	0.0101	–
313.15 K, m1 = 0.00088	0.0105	–
313.15 K, m1 = 0.00094	0.0109	–
313.15 K, m1 = 0.001	0.0112	–
313.15 K, m1 = 0.00107	0.0116	–
313.15 K, m1 = 0.00115	0.012	–
313.15 K, m1 = 0.00125	0.0124	–
313.15 K, m1 = 0.00136	0.0128	–
313.15 K, m1 = 0.0015	0.0133	–
318.15 K, m1 = 0.00055	0.0075	–
318.15 K, m1 = 0.00058	0.0078	–
318.15 K, m1 = 0.0006	0.008	–
318.15 K, m1 = 0.00062	0.0084	–
318.15 K, m1 = 0.00065	0.0087	–
318.15 K, m1 = 0.00068	0.0091	–
318.15 K, m1 = 0.00071	0.0095	–
318.15 K, m1 = 0.00075	0.0099	–
318.15 K, m1 = 0.00079	0.0105	–
318.15 K, m1 = 0.00083	0.0111	–
318.15 K, m1 = 0.00088	0.0116	–
318.15 K, m1 = 0.00093	0.0122	–
318.15 K, m1 = 0.001	0.0127	–
318.15 K, m1 = 0.00107	0.0131	–
318.15 K, m1 = 0.00115	0.0135	–
318.15 K, m1 = 0.00125	0.0139	–
318.15 K, m1 = 0.00136	0.0145	–
318.15 K, m1 = 0.0015	0.0152	–
323.15 K, m1 = 0.00055	0.008	–
323.15 K, m1 = 0.00057	0.0083	–
323.15 K, m1 = 0.0006	0.0086	–
323.15 K, m1 = 0.00062	0.0089	–
323.15 K, m1 = 0.00065	0.0093	–
323.15 K, m1 = 0.00068	0.0097	–
323.15 K, m1 = 0.00071	0.0101	–
323.15 K, m1 = 0.00075	0.0106	–
323.15 K, m1 = 0.00079	0.0112	–
323.15 K, m1 = 0.00083	0.0117	–
323.15 K, m1 = 0.00088	0.0124	–
323.15 K, m1 = 0.00093	0.0131	–
323.15 K, m1 = 0.00099	0.0137	–
323.15 K, m1 = 0.00107	0.0143	–
323.15 K, m1 = 0.00115	0.0148	–
323.15 K, m1 = 0.00124	0.0154	–
323.15 K, m1 = 0.00136	0.0161	–
323.15 K, m1 = 0.00149	0.0169	–

O [water] + CCCCCCCCCCCCCCCC[N+](C)(C)CCO.[Br-]
Conditions	surface tension liquid-gas [mN/m]
298.15 K, m2 = 0	72.17

O [water] + CCCCCCCCCCCCCCCC[N+](C)(CCO)CCO.[Br-]
Conditions	surface tension liquid-gas [mN/m]
298.15 K, m2 = 0	72.17

O [water] + CCCCCCCCCCCCCC[N+](C)(C)CCO.[Br-]
Conditions	surface tension liquid-gas [mN/m]
298.15 K, m2 = 0	72.17

O [water] + CCCCCCCCCCCCCC[N+](C)(CCO)CCO.[Br-]
Conditions	surface tension liquid-gas [mN/m]
298.15 K, m2 = 0	72.17

O [water] + CCCCCCCCCCCC[N+](C)(C)CCO.[Br-]
Conditions	surface tension liquid-gas [mN/m]
298.15 K, m2 = 0	72.17

O [water] + CCCCCCCCCCCC[N+](C)(CCO)CCO.[Br-]
Conditions	surface tension liquid-gas [mN/m]
298.15 K, m2 = 0	72.17
